Measurements reported in patent US20250034197A1, “NUCLEOSIDE-DIPHOSPHATE-HEPTOSE COMPOUNDS FOR TREATING CONDITIONS ASSOCIATED WITH ALPK1 ACTIVITY” (PYROTECH (BEIJING) BIOTECHNOLOGY CO., LTD., priority 2021, published 2025).
pEC50: −log10 of the molar value. Where two headings read alike, the source gives them in different places.

Legend:
ALPK1 [1] = molecular target: T1, ALPK1 (Homo sapiens, UniProt Q96QP1); experiment: Enzymatic assay of ALPK1 activation; type: biochemical
T1 construct: endogenous in cells; host or cells: 293T cells
T1 sequence (Q96QP1 whole entry): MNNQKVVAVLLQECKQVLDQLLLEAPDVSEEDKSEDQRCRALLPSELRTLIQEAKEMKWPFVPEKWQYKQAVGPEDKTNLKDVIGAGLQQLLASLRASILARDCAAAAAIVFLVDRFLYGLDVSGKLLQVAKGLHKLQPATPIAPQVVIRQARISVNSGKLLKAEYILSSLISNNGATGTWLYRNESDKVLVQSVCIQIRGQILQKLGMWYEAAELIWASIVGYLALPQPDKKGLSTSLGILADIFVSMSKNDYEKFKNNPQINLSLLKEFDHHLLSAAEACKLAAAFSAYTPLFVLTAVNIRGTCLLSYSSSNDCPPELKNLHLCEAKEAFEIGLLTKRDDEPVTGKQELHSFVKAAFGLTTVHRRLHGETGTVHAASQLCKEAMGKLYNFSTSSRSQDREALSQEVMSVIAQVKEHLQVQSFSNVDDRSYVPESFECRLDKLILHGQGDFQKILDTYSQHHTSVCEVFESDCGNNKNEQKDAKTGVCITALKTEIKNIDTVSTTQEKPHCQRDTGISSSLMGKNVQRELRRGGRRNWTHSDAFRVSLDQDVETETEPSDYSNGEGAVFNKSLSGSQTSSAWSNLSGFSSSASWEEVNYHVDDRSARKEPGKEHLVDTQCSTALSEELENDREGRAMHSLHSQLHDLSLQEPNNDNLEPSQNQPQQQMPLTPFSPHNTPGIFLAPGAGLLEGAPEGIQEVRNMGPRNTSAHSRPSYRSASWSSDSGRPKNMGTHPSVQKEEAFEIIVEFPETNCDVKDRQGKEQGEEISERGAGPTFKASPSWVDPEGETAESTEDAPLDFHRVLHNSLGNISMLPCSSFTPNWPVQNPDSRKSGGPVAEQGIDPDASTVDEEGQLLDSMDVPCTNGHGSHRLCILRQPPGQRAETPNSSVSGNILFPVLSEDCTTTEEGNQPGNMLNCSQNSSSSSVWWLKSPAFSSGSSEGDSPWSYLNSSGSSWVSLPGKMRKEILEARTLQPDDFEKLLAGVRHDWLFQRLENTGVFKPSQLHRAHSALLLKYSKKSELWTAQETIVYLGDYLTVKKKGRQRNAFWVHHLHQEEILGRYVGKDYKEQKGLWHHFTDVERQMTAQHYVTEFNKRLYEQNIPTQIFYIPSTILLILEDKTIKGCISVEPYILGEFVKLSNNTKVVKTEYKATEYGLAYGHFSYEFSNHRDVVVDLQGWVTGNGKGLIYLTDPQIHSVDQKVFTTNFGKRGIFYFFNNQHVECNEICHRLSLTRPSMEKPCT

ALPK1 [2] = molecular target: T1, ALPK1; experiment: NF-κB luciferase reporter assay in 293T cells (cellular assay); type: cell-based
Description: The compounds disclosed herein activate NF-κB through ALPK1-TIFA axis as determined by the NF-κB luciferase reporter and TIFA phosphorylation. For NF-κB luciferase assay, the plasmids (pNL2.2-BII-5RE-Luc), and control vector (pRL-TK) were transfected into 293T cells with the Jetprime reagents (Polyplus). NF-κB luciferase activity was determined using the dual luciferase assay kit (Promega) according to the manufacturer's instructions. TIFA phosphorylation upon the treatment with the compounds disclosed herein described in Table 1, were assayed with immunoblotting. Briefly, for the immunoblotting assay, the 293T cells were seeded in 12-well-plates and cultured for 16 h, and treated with indicated compounds for another 2 hours. Subsequently, the cells were collected and sampled as the regular western-blotting method, immunoblotted by the TIFA phosphorylation specific antibody (ab214815, Abcam).
The EC50 of the compounds disclosed herein were determined by the NF-κB luciferase reporter assay using 293T cells described supra. Compounds with indicated concentrations were added to the culture medium of 293T and the NF-κB luciferase activity was determined using the dual luciferase assay kit (Promega) according to the manufacturer's instructions. […] These chemical entities induce strong activation of the immune regulator NF-κB.

[3] = PK / tissue distribution in Sprague-Dawley rats; type: in vivo; conditions: female, rat; for Cmax: PO, 5 mg/kg; for clearance: IV 1 mg/kg, read-out: CL post IV Dosing @1 mg/kg; for half-life: PO 5 mg/kg, read-out: T1/2 post PO Dosing @5 mg/kg (converted)
Description: Tissue distribution study of the compounds disclosed herein were conducted in SD rats and mice to assess their liver-targeting properties. The compounds disclosed herein were orally administered to SD rats and mice, and the concentration of the compound and its metabolites were tested in plasma and liver at different time points.
The pharmacokinetics of the compounds disclosed herein were evaluated in female Sprague-Dawley rats after administration via oral gavage and intravenous bolus (IV) injection. The test compound was dissolved in 0.5% methylcellulose for oral gavage and in 30% HP-β-CD for IV injection. The animals used for oral administration were fasted overnight prior to dosing and fed normal daily feed at 4 hours post-dose, but the animals used for IV dosing had free access to food during the study. Plasma samples were collected at pre-dose, 0.033 (IV only), 0.083, 0.25, 0.5, 1, 2, 4, 7 and 24 hours post-dose. Liver samples were collected at 1, 3 and 6 hours post-dose. The samples were analyzed by LC/MS/MS and the concentrations of test compound and its metabolites at each time point were determined. Pharmacokinetic parameters were calculated from the plasma concentrations using Pheonix WinNonlin.
Particularly, preferable compounds have a ratio for liver concentration to plasma concentration of greater than 2, more preferable compounds have a ratio for liver concentration to plasma concentration of greater than 5, and most preferable compounds have a ratio for liver concentration to plasma concentration of greater than 10. The PK properties and tissue exposure of representative compounds and control compound ADPS-Heptose in Rats are given below.

[4] = plasma, read-out: Cmax in Plasma

Structure (SMILES) | pEC50 (ALPK1 [1]) | pEC50 (ALPK1 [2]) | Cmax ([3]; liver, read-out: Cmax in Liver) | Cmax [3, 4] | clearance ([3]; plasma) | half-life ([3]; plasma)
C=C[C@@]1(O)[C@H](O)[C@@H](COP(=O)(S)OP(=O)(O)OC2OC([C@H](COC(C)=O)OC(C)=O)C(OC(C)=O)C(OC(C)=O)C2OC(C)=O)O[C@H]1n1cnc2c(N)ncnc21 (stereo partly drawn) [Example 31C] | – | 7.77 | 30.5 ng/g | < 1 ng/mL | 14.6 mL/min/kg | 104 min
CC(=O)OC[C@H](OC(C)=O)C1OC(OP(=O)(O)OP(=O)(S)OC[C@H]2O[C@@H](n3cnc4c(N)ncnc43)[C@H](N(C)C)[C@@H]2O)C(OC(C)=O)C(OC(C)=O)C1OC(C)=O (stereo partly drawn) [Example 35C] | – | 7.72 | 1330 ng/g | 75.5 ng/mL | 7.67 mL/min/kg | 27 min
C=C[C@@]1(F)[C@H](O)[C@@H](COP(=O)(S)OP(=O)(O)OC2OC([C@H](COC(C)=O)OC(C)=O)C(OC(C)=O)C(OC(C)=O)C2OC(C)=O)O[C@H]1n1cnc2c(N)ncnc21 (stereo partly drawn) [Example 41C] | – | 8.08 | 18.7 ng/g | < 1 ng/mL | 9.76 mL/min/kg | 51 min
C=C[C@@]1(O)[C@H](O)[C@@H](COP(=O)(S)OP(=O)(O)OC2OC([C@H](COC(C)=O)OC(C)=O)C(OC(C)=O)C(OC(C)=O)C2OC(C)=O)O[C@H]1n1ccc(=O)[nH]c1=O (stereo partly drawn) [Example 43C] | – | 7.68 | 22.4 ng/g | < 1 ng/mL | 8.25 mL/min/kg | 140 min
CS[C@@H]1[C@H](O)[C@@H](COP(=O)(S)OP(=O)(O)OC2OC([C@H](COC(C)=O)OC(C)=O)C(OC(C)=O)C(OC(C)=O)C2OC(C)=O)O[C@H]1n1ccc(=O)[nH]c1=O (stereo partly drawn) [Example 262C] | – | 7.44 | – | – | – | –
CS[C@@H]1[C@H](O)[C@@H](COP(=O)(S)OP(=O)(O)OC2OC([C@@H](O)CO)C(O)C(O)C2O)O[C@H]1n1ccc(=O)[nH]c1=O (stereo partly drawn) [Example 262D] | – | 6.99 | – | – | – | –
C#C[C@@]1(O)[C@H](O)[C@@H](COP(=O)(S)OP(=O)(O)OC2OC([C@H](COC(C)=O)OC(C)=O)C(OC(C)=O)C(OC(C)=O)C2OC(C)=O)O[C@H]1c1csc2c(N)ncnc12 (stereo partly drawn) [Example 264C] | – | 7.32 | – | – | – | –
C=C[C@@]1(O)[C@H](O)[C@@H](COP(=O)(S)OP(=O)(O)OC2OC([C@H](COC(C)=O)OC(C)=O)C(OC(C)=O)C(OC(C)=O)C2OC(C)=O)O[C@H]1c1csc2c(N)ncnc12 (stereo partly drawn) [Example 265C] | – | 7.34 | – | – | – | –
C=C[C@@]1(O)[C@H](O)[C@@H](COP(=O)(S)OP(=O)(O)OC2OC([C@@H](OC(C)=O)C(COC(C)=O)OC(C)=O)C(OC(C)=O)C(OC(C)=O)C2OC(C)=O)O[C@H]1n1cnc2c(N)ncnc21 (stereo partly drawn) [Example 321C] | – | < 6.00 | – | – | – | –

Now from value to molecule, other results behind:

pEC50 (ALPK1 [1]) | pEC50 (ALPK1 [2]) | Structure (SMILES) | Cmax ([3]; liver, read-out: Cmax in Liver) | Cmax [3, 4] | clearance ([3]; plasma) | half-life ([3]; plasma)
7.96 | 8.15 | C=C[C@@]1(O)[C@H](O)[C@@H](CO[P@](=O)(S)OP(=O)(O)OC2OC([C@@H](O)CO)C(O)C(O)C2O)O[C@H]1n1cnc2c(N)ncnc21 (single isomer, unassigned) [Example 31Q] | – | – | – | –
7.92 | 7.87 | C=C[C@@]1(O)[C@H](O)[C@@H](CO[P@@](=O)(S)OP(=O)(O)OC2OC([C@@H](O)CO)C(O)C(O)C2O)O[C@H]1n1cnc2c(N)ncnc21 (single isomer, unassigned) [Example 31R] | – | – | – | –
8.39 | 8.24 | C=C[C@@]1(F)[C@H](O)[C@@H](COP(=O)(S)OP(=O)(O)OC2OC([C@@H](O)CO)C(O)C(O)C2O)O[C@H]1n1cnc2c(N)ncnc21 (single isomer, unassigned) [Example 41D] | – | – | – | –
7.59 | 8.39 | C#C[C@@]1(F)[C@H](O)[C@@H](COP(=O)(S)OP(=O)(O)OC2OC([C@@H](O)CO)C(O)C(O)C2O)O[C@H]1n1cnc2c(N)ncnc21 (stereo partly drawn) [Example 21D] | – | – | – | –
7.19 | 8.25 | C#C[C@@]1(F)[C@H](O)[C@@H](COP(=O)(S)OP(=O)(O)OC2OC([C@@H](O)CO)C(O)C(O)C2O)O[C@H]1n1ccc(=O)[nH]c1=O (stereo partly drawn) [Example 22D] | – | – | – | –
7.77 | 8.08 | C#C[C@@]1(O)[C@H](O)[C@@H](COP(=O)(S)OP(=O)(O)OC2OC([C@@H](O)CO)C(O)C(O)C2O)O[C@H]1n1cnc2c(N)ncnc21 (stereo partly drawn) [Example 25D] | – | – | – | –
7.62 | 7.79 | C=C[C@@]1(O)[C@H](O)[C@@H](COP(=O)(S)OP(=O)(O)OC2OC([C@@H](O)CO)C(O)C(O)C2O)O[C@H]1n1cnc2c(N)ncnc21 (stereo partly drawn) [Example 31D] | – | – | – | –
– | 8.12 | C=C[C@@]1(F)[C@H](O)[C@@H](COP(=O)(S)OP(=O)(O)OC2OC([C@H](COC(C)=O)OC(C)=O)C(OC(C)=O)C(OC(C)=O)C2OC(C)=O)O[C@H]1n1ccc(=O)[nH]c1=O (stereo partly drawn) [Example 42C] | 31.7 ng/g | 2.4 ng/mL | 18.6 mL/min/kg | 37.8 min
7.96 | 7.85 | C=C[C@@]1(F)[C@H](O)[C@@H](COP(=O)(S)OP(=O)(O)OC2OC([C@@H](O)CO)C(O)C(O)C2O)O[C@H]1n1ccc(=O)[nH]c1=O (stereo partly drawn) [Example 42D] | – | – | – | –
7.32 | 7.74 | C=C[C@@]1(O)[C@H](O)[C@@H](COP(=O)(S)OP(=O)(O)OC2OC([C@@H](O)CO)C(O)C(O)C2O)O[C@H]1n1ccc(=O)[nH]c1=O (stereo partly drawn) [Example 43D] | – | – | – | –
– | 8.53 | C=C[C@@]1(O)[C@H](O)[C@@H](COP(=O)(S)OP(=O)(O)OC2OC([C@H](COC(C)=O)OC(C)=O)C(OC(C)=O)C(OC(C)=O)C2OC(C)=O)O[C@H]1c1cnc2c(N)ncnn12 (stereo partly drawn) [Example 127C] | 48.5 ng/g | 0.4 ng/mL | 17.6 mL/min/kg | 38.4 min
– | 8.17 | CO[C@@H]1[C@H](O)[C@@H](COP(=O)(S)OP(=O)(O)OC2OC([C@H](COC(C)=O)OC(C)=O)C(OC(C)=O)C(OC(C)=O)C2OC(C)=O)O[C@H]1c1cnc2c(N)ncnn12 (stereo partly drawn) [Example 322C] | – | – | – | –
